Experimental data published in US4803167A, “Monoclonal antidigoxtin antibodies” (The General Hospital Corporation, priority 1982, dated 1989).
Read-outs that look alike come from different tables or passages of the source.

Experiments:
Experiment in all cases: Specificity determination, inhibition of [3H]digoxin binding in dextran charcoal RIA
[1] = tested on: monoclonal anti-digoxin antibody Dig 35-20; set-up: species or system mouse (A/J); details: for amount of inhibitor required to give 50% inhibition relative to the amount of digoxin which gave 50% inhibition: inhibition of antibody binding to [3H]digoxin
Experimental: (§1) The specificity of each antidigoxin antibody for related cardiac glycosides was assessed by the inhibition of binding of antibody in the dextran charcoal radioimmunoassay Smith (1972), supra. To a constant amount of H^3 -digoxin (1.5 ng) in 1 ml of buffer is added different amounts ([…]) of various cardiac glycosides: digoxin, digitoxin, digitoxigenin, digoxigenin, acetyl-strophanthidin, ouabain, deslanoside, and endogenous steroids such as chloresterol, cortisol, androsterone, 17-[beta]-estradiol, progesterone, and testosterone. After 5 minutes, a constant amount of anti-digoxin antibody was added and the assay was continued as described above. Comparison among different antidigoxin antibodies with respect to their fine specificity was made by determining the amount of cardiac glycoside required to achieve 50% inhibition relative to that required for cold digoxin.
(§2) Specificity of monoclonal antibody binding site for related cardiac glycosides was examined by means of hapten inhibition experiments in which the binding of monoclonal antibody to H^3 -digoxin was inhibited by cold digoxin and related cardiac glycosides.

[2] = tested on: monoclonal anti-digoxin antibody Dig 26-40; set-up: species or system mouse (A/J); details: for amount of inhibitor required to give 50% inhibition relative to the amount of digoxin which gave 50% inhibition: inhibition of antibody binding to [3H]digoxin
Experimental: as §1, §2

[3] = tested on: monoclonal anti-digoxin antibody Dig 26-20; set-up: species or system mouse (A/J); details: for amount of inhibitor required to give 50% inhibition relative to the amount of digoxin which gave 50% inhibition: inhibition of antibody binding to [3H]digoxin
Experimental: as §1, §2

[4] = tested on: monoclonal anti-digoxin antibody Dig 26-10; set-up: species or system mouse (A/J); details: for amount of inhibitor required to give 50% inhibition relative to the amount of digoxin which gave 50% inhibition: inhibition of antibody binding to [3H]digoxin
Experimental: as §1, §2

[5] = tested on: monoclonal anti-digoxin antibody Dig 25-54; set-up: species or system mouse (A/J); details: for amount of inhibitor required to give 50% inhibition relative to the amount of digoxin which gave 50% inhibition: inhibition of antibody binding to [3H]digoxin
Experimental: as §1, §2

[6] = tested on: monoclonal anti-digoxin antibody Dig 26-30; set-up: species or system mouse (A/J); details: for amount of inhibitor required to give 50% inhibition relative to the amount of digoxin which gave 50% inhibition: inhibition of antibody binding to [3H]digoxin
Experimental: as §1, §2

[7] = tested on: Sheep Anti-Dig Serum (heterogeneous anti-digoxin antiserum); details: inhibition of antibody binding to [3H]digoxin
Experimental: Antisera specific for digoxin was prepared in sheep as previously described by Curd et al, Proc. Nat. Acad. Sci. 65: 2401 (1971). High affinity antidigoxin sheep antisera was used in the clinical RIA for digoxin (described below).
as §1, §2

[8] = highest concentration tested 10^-4 M

| Compound | inhibition of binding of [3H]digoxin by endogenous steroids [1, 8] | inhibition of binding of [3H]digoxin by endogenous steroids [2, 8] | inhibition of binding of [3H]digoxin by endogenous steroids [3, 8] | inhibition of binding of [3H]digoxin by endogenous steroids [4, 8] | inhibition of binding of [3H]digoxin by endogenous steroids [5, 8] | inhibition of binding of [3H]digoxin by endogenous steroids [6, 8] | amount of inhibitor required to give 50% inhibition relative to the amount of digoxin which gave 50% inhibition [1] | amount of inhibitor required to give 50% inhibition relative to the amount of digoxin which gave 50% inhibition [2] | amount of inhibitor required to give 50% inhibition relative to the amount of digoxin which gave 50% inhibition [3] | amount of inhibitor required to give 50% inhibition relative to the amount of digoxin which gave 50% inhibition [4] | amount of inhibitor required to give 50% inhibition relative to the amount of digoxin which gave 50% inhibition [5] | amount of inhibitor required to give 50% inhibition relative to the amount of digoxin which gave 50% inhibition [6] | other results |
| --- | --- | --- | --- | --- | --- | --- | --- | --- | --- | --- | --- | --- | --- |
| CC(C)CCC[C@@H](C)[C@H]1CC[C@H]2[C@@H]3CC=C4C[C@@H](O)CC[C@]4(C)[C@H]3CC[C@]12C [cholesterol] | No significant inhibition | No significant inhibition | No significant inhibition | No significant inhibition | No significant inhibition | No significant inhibition | – | – | – | – | – | – | – |
| C[C@H]1O[C@@H](O[C@H]2[C@@H](O)C[C@H](O[C@H]3[C@@H](O)C[C@H](O[C@H]4CC[C@@]5(C)[C@H](CC[C@@H]6[C@@H]5CC[C@]5(C)[C@@H](C7=CC(=O)OC7)CC[C@]65O)C4)O[C@@H]3C)O[C@@H]2C)C[C@H](O)[C@@H]1O [Digitoxin] | – | – | – | – | – | – | 4.6 | 1.4 | 1.0 | 1.3 | 1.8 | 2.6 | amount of inhibitor required to give 50% inhibition relative to the amount of digoxin which gave 50% inhibition [7]: 152.0; amount of inhibitor required to give 50% inhibition relative to the amount of digoxin which gave 50% inhibition ([7]; listed as digitoxin): 150 |
| C[C@@H]1O[C@@H](O[C@H]2C[C@@H](O)[C@]3(CO)[C@H]4[C@H](O)C[C@]5(C)[C@@H](C6=CC(=O)OC6)CC[C@]5(O)[C@@H]4CC[C@]3(O)C2)[C@H](O)[C@H](O)[C@H]1O [Ouabain] | – | – | – | – | – | – | 333 | 78 | 53 | 66 | > 100 | 84 | amount of inhibitor required to give 50% inhibition relative to the amount of digoxin which gave 50% inhibition [7]: > 10^5 |
| CC(=O)[C@H]1CC[C@H]2[C@@H]3CCC4=CC(=O)CC[C@]4(C)[C@H]3CC[C@]12C [progesterone] | No significant inhibition | No significant inhibition | No significant inhibition | No significant inhibition | No significant inhibition | No significant inhibition | – | – | – | – | – | – | – |
| C[C@H]1O[C@@H](O[C@H]2CC[C@@]3(C)[C@H](CC[C@@H]4[C@@H]3C[C@@H](O)[C@]3(C)[C@@H](C5=CC(=O)OC5)CC[C@]43O)C2)C[C@H](O)[C@@H]1O[C@H]1C[C@H](O)[C@H](O[C@H]2C[C@H](O)[C@H](O[C@@H]3O[C@H](CO)[C@@H](O)[C@H](O)[C@H]3O)[C@@H](C)O2)[C@@H](C)O1 [Deslanoside] | – | – | – | – | – | – | 3.7 | 2.0 | 1.5 | 2.6 | 4.3 | 1.6 | – |
| C[C@]12CC[C@@H]3c4ccc(O)cc4CC[C@H]3[C@@H]1CC[C@@H]2O [17-[beta]-estradiol] | No significant inhibition | No significant inhibition | No significant inhibition | No significant inhibition | No significant inhibition | No significant inhibition | – | – | – | – | – | – | – |
| C[C@]12CC[C@H]3[C@@H](CCC4=CC(=O)CC[C@@]43C)[C@@H]1CC[C@@H]2O [testosterone] | – | – | – | – | – | – | – | – | – | – | – | – | inhibition of binding of [3H]digoxin by endogenous steroids [1]: No significant inhibition; inhibition of binding of [3H]digoxin by endogenous steroids [2]: No significant inhibition; inhibition of binding of [3H]digoxin by endogenous steroids [3]: No significant inhibition; inhibition of binding of [3H]digoxin by endogenous steroids [4]: No significant inhibition; inhibition of binding of [3H]digoxin by endogenous steroids [5]: No significant inhibition; inhibition of binding of [3H]digoxin by endogenous steroids [6]: No significant inhibition |
| 4-androstedione | – | – | – | – | – | – | – | – | – | – | – | – | inhibition of binding of [3H]digoxin by endogenous steroids [1]: No significant inhibition; inhibition of binding of [3H]digoxin by endogenous steroids [2]: No significant inhibition; inhibition of binding of [3H]digoxin by endogenous steroids [3]: No significant inhibition; inhibition of binding of [3H]digoxin by endogenous steroids [4]: No significant inhibition; inhibition of binding of [3H]digoxin by endogenous steroids [5]: No significant inhibition; inhibition of binding of [3H]digoxin by endogenous steroids [6]: No significant inhibition |
| CC(=O)O[C@H]1CC[C@]2(C=O)[C@H]3CC[C@]4(C)[C@@H](C5=CC(=O)OC5)CC[C@]4(O)[C@@H]3CC[C@]2(O)C1 [Acetylstrophanthidin] | – | – | – | – | – | – | 110 | 2.30 | 0.70 | 1.50 | > 100 | 0.85 | – |
| C[C@]12CCC(=O)C=C1CC[C@@H]1[C@@H]2[C@@H](O)C[C@@]2(C)[C@H]1CC[C@]2(O)C(=O)CO [cortisol] | No significant inhibition | No significant inhibition | No significant inhibition | No significant inhibition | No significant inhibition | No significant inhibition | – | – | – | – | – | – | – |
| C[C@]12CC[C@H](O)C[C@H]1CC[C@@H]1[C@@H]2CC[C@]2(C)[C@@H](C3=CC(=O)OC3)CC[C@]12O [Digitoxigenin] | – | – | – | – | – | – | 2.7 | 4.0 | 2.2 | 3.7 | 54.0 | 3.6 | amount of inhibitor required to give 50% inhibition relative to the amount of digoxin which gave 50% inhibition [7]: 860.0 |
